# Values quoted from earlier work in US6420379B1, “Alkynyl-substituted camptothecins and process for their preparation” (Pharmacia & Upjohn S.p.A., priority 1997, dated 2002).
# Key:
# human albumin = human albumin (Homo sapiens, UniProt P02768); conditions: presence of biologically relevant levels of human albumin
# [1] = 2 hours after drug addition to human plasma
# Sequence of human albumin (P02768 25-609): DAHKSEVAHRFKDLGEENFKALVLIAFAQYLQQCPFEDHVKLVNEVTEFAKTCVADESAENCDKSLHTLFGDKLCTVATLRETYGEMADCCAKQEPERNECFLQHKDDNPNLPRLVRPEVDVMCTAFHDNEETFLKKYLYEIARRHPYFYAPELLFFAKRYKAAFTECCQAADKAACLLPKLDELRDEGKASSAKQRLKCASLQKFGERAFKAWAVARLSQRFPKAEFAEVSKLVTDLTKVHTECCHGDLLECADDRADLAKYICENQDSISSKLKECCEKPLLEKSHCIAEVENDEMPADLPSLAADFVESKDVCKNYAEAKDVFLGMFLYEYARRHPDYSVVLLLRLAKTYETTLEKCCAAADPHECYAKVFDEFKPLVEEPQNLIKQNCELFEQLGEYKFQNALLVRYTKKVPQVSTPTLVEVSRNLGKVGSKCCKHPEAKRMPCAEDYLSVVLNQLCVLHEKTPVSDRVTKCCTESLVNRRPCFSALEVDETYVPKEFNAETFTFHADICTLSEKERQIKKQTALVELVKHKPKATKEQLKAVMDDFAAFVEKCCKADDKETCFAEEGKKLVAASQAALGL
compound,measurement,setting,value
CC[C@@]1(O)C(=O)OCc2c1cc1n(c2=O)Cc2cc3ccccc3nc2-1 [camptothecin],half-life of the biologically active form,human albumin,about 12 min.
same,percentage of the drug converted to camptothecin carboxylate,[1],greater than 99%
